{"source": "patent EP1201237A1", "about": "“Composition comprising an amide or a dialkylsulphoxide derivative for the treatment of cancer” (Virodene Pharmaceutical Holdings (PTY) Ltd., priority 2000, dated 2002)", "key": {"EGF-transfected cells": {"system": "EGF-transfected cells", "assay": "Properties of EGF-transfected FR3T3 fibroblasts", "assay_type": "cell-based"}, "[1]": {"assay": "DMF level in the patient's blood during patch treatment", "assay_type": "in vivo, human", "conditions": "patches of about 7,064 g DMF", "protocol": "For a patient weighing about 60 kg, an amount of about 14 g over a period of 12 hours is required to produce a level of 100 ppm. […] Absorption capability varies from patient to patient depending on factors such as skin-type and skin thickness.\nDaily full clinical and psychological evaluations were also conducted."}, "[2]": {"system": "HOC-7 ovarian adenocarcinoma cells", "assay": "ELISA of antigen expression in HOC-7 cells", "assay_type": "cell-based, human", "text": "(§1) (HOC-7) to a malignant cell. This was also found in human colon carcinoma. (Factor - beta 1 is growth factor, that can be up regulated or transformed in human cells.)\n(§2) Exposure of HOC-7 ovarian adenocarcinoma cells to regulators of cell differentiation caused inducer-dependent alterations of the antigenic pattern of the cells. […] Stimulation of fibronectin was also seen after addition of transforming growth factor (TGF) - beta 1. […] CA 125, Fibronectin, and desmoplakins I and II. TGF - beta 1 stimulated fibronectin and desmoplakins I and II only."}, "[3]": {"conditions": "several 90-day studies; cited from earlier work"}, "[4]": {"assay": "Toxicity of DMF by route of administration", "assay_type": "in vivo", "conditions": "subcutaneous versus oral"}, "FR3T3 fibroblasts": {"system": "FR3T3 fibroblasts", "assay": "EGF binding and EGF secretion in transfected FR3T3 lines and control cells", "assay_type": "cell-based", "text": "(§3) The high proliferation rate of the ras-3 cells was associated with elevated expression of protein B23. The 19-3 cells. But not the ras-3 cells, expressed cell surface fibronectin."}, "[5]": {"assay": "Single dose study of disposition, safety, tolerability and pharmacokinetics of virodene P058 in healthy volunteers", "assay_type": "in vivo", "conditions": "7,06 g of DMF transdermally once a week for 8 hours, human subjects", "text": "A draft interim clinical safety report produced by Guy's Drug Research Unit of Kings College and St Thomas' Hospitals' Medical and Dental School is set out below.\nA single dose study of the disposition, safety, tolerability and pharmacokinetics of virodene P058 in healthy volunteers.\n• ° 5 subjects dosed on day 1 (subjects 001 - 005) • ° 5 subjects dosed on day 14 (subjects 006 - 010) • ° No withdrawals • ° Final follow up for subjects 001 - 005 occurred on day 15 • ° Final follow up for subjects 006 - 010 due on day 28 Table 1.1 -\nThe first patch was applied at 10h00 on day 1 for subjects 001 - 005 and at 09h20 on […] for subjects 006 - 010 with 10 minute intervals between dosing.\n• ° Laboratory Safety Values: No clinically significant changes observed for biochemistry, liver function tests, haematology or coagulation parameters. • ° Vital Signs - There were no obvious clinically significant changes observed • ° Continuous lead [I monitoring - No clinically significant changes observed] • ° 12 kead ECG - No clinically significant changes observed • ° Adverse events are reported in Table 1.2"}, "[6]": {"system": "metastasised fourth stage breast cancer", "assay": "Example 1: skin patch treatment of a breast cancer patient", "assay_type": "in vivo, human", "text": "The patient was a person suffering from metastasised fourth stage breast cancer. The primary cancer was in the left breast and had spread to the right breast. The patient had auxiliary left and right swollen lymph glands under both arms, swelling of lymph glands under the chin and a secondary tumour near the crown of the head protruding from the skull which was four fingertips across. The patient was dehydrated and unable to keep down food or water.\nA skin patch was applied to the skin adjacent the tumour for six hours. […] The gel served to prevent leakage of liquid DMF from the patches.\nEach patch was applied for a period of 6 hours, on alternate days for one week followed by a one week break."}, "HOC-7 cells": {"system": "HOC-7 cells", "assay": "Immunophenotype and growth of HOC-7 cells", "assay_type": "cell-based, human", "text": "Production of EGF and TGF - alpha was not affected by these inducers. Immunocytochemistry. […] The expression of myconcoproteins was inversely related to cell proliferation CA 125, however, seems to be unrelated to cell growth."}, "Mama Carcinoma": {"system": "Mama Carcinoma", "assay": "Example 2: skin patch treatment of a patient with Mama Carcinoma", "assay_type": "in vivo, human", "conditions": "three weekly treatments, 7.04g patches for 4 hours"}, "[7]": {"system": "HOC-7 ovarian adenocarcinoma cells", "assay": "Immunocytochemistry of HOC-7 cells", "assay_type": "cell-based, human", "text": "as §1, §2"}, "[8]": {"conditions": "oral study; cited from earlier work"}, "[9]": {"system": "chemistry transformed fibroblasts", "assay": "Phenotype of chemically transformed fibroblasts", "assay_type": "cell-based"}, "DNA sequences": {"system": "DNA sequences", "assay": "In-vitro studies in cell cultures: effect on DNA", "assay_type": "cell-based", "text": "(§4) Instead of a piling pattern, mono layers of cells in regular parallel orientation formed that were typical of non-malignant fibroblasts. […] Focal Adhesion Kinase (FAK) is activated in response to receptor activation at focal adhesion sites. FAK is a substrate for the oncogenic forms of the src-family of tyrosine kinases. The action of polar agents on oncogenic expression is believed to be the induction of cancer cells to become more benign. It would seem reasonable that to convert a malignant cell to a benign phenotype, there should be some modulation of gene expression causing malignancy in the first place. In the HL-60 human promyelocytic leukemia cells, dimethylsulfoxide (DMSO) reduced the expression of c-myc oncogenes by 80 to 90%. Some brain tumours are regulated by glial-binding growth factors such as Epidermal Growth Factor (EGF) and Platelet Derived Growth Factor (PDGF) both of which are related to oncogenes. The PDGF β-chain gene is the cellular homologue and proto-oncogene of the viral […] oncogene. Cell maturation induced by polar agents (N-MF) as single agents is most likely to be effective in Neuroblastoma and Glioblastoma (as well as leukemia and melanoma). Polar agents easily penetrate the blood brain barrier and sensitize tumour cells to both X-radiation and cis-platinum. […]"}, "non-Hodgkins Lymphoma": {"system": "non-Hodgkins Lymphoma", "assay": "Example 4: skin patch treatment of a patient with non-Hodgkins Lymphoma", "assay_type": "in vivo, human", "text": "A fourth patient was an adult diagnosed with non-Hodgkins Lymphoma. The patient had not been on chemotherapy and was HIV positive."}, "ras-transfected cells": {"system": "ras-transfected cells", "assay": "Properties of ras-transfected FR3T3 fibroblasts", "assay_type": "cell-based", "text": "as §3"}, "Tyrosine Kinase": {"system": "Tyrosine Kinase", "assay": "Tyrosine Kinase Assay kit (non-radioactive # 1534505, Boehringer Mannheim)", "assay_type": "biochemical", "conditions": "values only in Appendix images", "text": "The results are set out in the Appendix below. [formula] [formula]"}, "myc onco-proteins": {"system": "myc onco-proteins", "assay": "In-vitro studies in cell cultures: myc expression", "assay_type": "cell-based", "text": "as §4"}, "[10]": {"conditions": "in vivo; cited from earlier work"}, "[11]": {"system": "virus transformed mice kidney cell-lines", "assay": "Growth pattern of virus transformed kidney cell-lines", "assay_type": "cell-based", "conditions": "growth medium supplemented by 0.5% DMF", "text": "as §4"}, "Karposi Sarcoma": {"system": "Karposi Sarcoma", "assay": "Example 3: skin patch treatment of an AIDS patient with Karposi Sarcoma", "assay_type": "in vivo, human", "text": "A third patient was a person suffering from full blown AIDS. The patient had seven tumours which were diagnosed as Karposi Sarcoma."}, "[12]": {"conditions": "inhalation study with rabbits; cited from earlier work"}, "c-myc oncogenes": {"system": "c-myc oncogenes", "assay": "c-myc expression in HL-60 cells", "assay_type": "cell-based", "conditions": "HL-60 human promyelocytic leukemia cells", "text": "as §4"}}, "note": "Where two headings read alike, the source gives them in different places."}
{"compound": "CN(C)C=O", "note": "[DMF, dimethylformamide]", "values": [{"measurement": "anchorage-independent growth", "setting": "EGF-transfected cells", "result": "inhibition"}, {"measurement": "normal cellular morphology and growth rate in monolayer culture", "setting": "EGF-transfected cells", "result": "restoration"}, {"measurement": "proliferation-associated nucleolar protein B23", "setting": "EGF-transfected cells", "result": "down-regulation"}, {"measurement": "DMF blood level obtained", "setting": "[1]; after loss by evaporation", "result": 100, "unit": "ppm"}, {"measurement": "DMF blood level delivered in theory", "setting": "[1]; theoretical", "result": "125 - 135 ppm"}, {"measurement": "expression of EGF - receptor, CA 125, Fibronectin, and desmoplakins I and II", "setting": "[2]", "result": "dose dependently induced"}, {"measurement": "NOAEL (No-Adverse-observed-Effect-Level)", "setting": "[3]", "result": "could not be established"}, {"measurement": "toxicity, subcutaneously as compared with oral administration", "setting": "[4]", "result": "5 - 10 times lower"}, {"measurement": "secretion of EGF", "setting": "FR3T3 fibroblasts; 2 transfected lines as well as control cells", "result": "increased"}, {"measurement": "EGF binding", "setting": "FR3T3 fibroblasts; transfected cell lines", "result": "in neither case did DMF alter"}, {"measurement": "liver enzymes", "setting": "[5]", "result": "does not result in raised liver enzymes"}, {"measurement": "serious adverse events", "setting": "[5]", "result": "no serious adverse events"}, {"measurement": "toxicity", "setting": "[5]", "result": "non-toxic"}, {"measurement": "temperature of the tumour", "setting": "[6]; during patch treatment", "result": "dropped to normal"}, {"measurement": "tumour reduced in size", "setting": "[6]; patches 6 hours on alternate days for one week, then one week break", "result": "1 - 2 mm per week"}, {"measurement": "patient's appetite", "setting": "[6]; three days after the treatment began", "result": "appetite returned"}, {"measurement": "tumour diameter", "setting": "[6]; two days after first 6 hour patch, 32 cm before treatment", "result": "29,5 cm"}, {"measurement": "tumour circumference", "setting": "[6]; two days after first 6 hour patch, 52 cm before treatment", "result": 51, "unit": "cm"}, {"measurement": "cell growth", "setting": "HOC-7 cells; HOC-7 cells", "result": "growth inhibition"}, {"measurement": "effectiveness in changing the immunophenotype of HOC-7 cells", "setting": "HOC-7 cells; compared with TGF-beta 1", "result": "more effective"}, {"measurement": "bleeding", "setting": "Mama Carcinoma", "result": "bleeding disappeared"}, {"measurement": "pain", "setting": "Mama Carcinoma", "result": "less pain"}, {"measurement": "tumour shrunk in diameter", "setting": "Mama Carcinoma; 3 weeks, 53 cm before treatment", "result": 7, "unit": "cm"}, {"measurement": "cytoplasmic and surface labeling for CA 125 and disposition of fibronectin into the extracellular matrix", "setting": "[7]", "result": "stimulated"}, {"measurement": "membrane staining for epidermal growth factor (EGF) receptor and for desmoplakins I and II", "setting": "[7]", "result": "elevated"}, {"measurement": "NOAEL for developmental effects", "setting": "[8]", "result": 44, "unit": "mg/kg body weight"}, {"measurement": "phenotype of transformed fibroblasts", "setting": "[9]", "result": "restoration of a nontransformed phenotype"}, {"measurement": "effect on DNA sequences", "setting": "DNA sequences", "result": "conformational changes and hypomethylation"}, {"measurement": "cancer", "setting": "non-Hodgkins Lymphoma; after eight treatments, 7.04g patches for 8 hours, 8 weeks", "result": "disappeared"}, {"measurement": "recurrence of cancer", "setting": "non-Hodgkins Lymphoma; eight months later", "result": "had not recurred"}, {"measurement": "fibronectin expression", "setting": "ras-transfected cells; ras-3 cells", "result": "did not restore"}, {"measurement": "growth in monolayer culture or under anchorage-independent growth conditions", "setting": "ras-transfected cells; ras-transfected cells, compared with EGF-transfected cells", "result": "much slighter effect"}, {"measurement": "effect of DMF on PTK", "setting": "Tyrosine Kinase", "result": "Tyrosine Kinase inhibitor"}, {"measurement": "expression of myc onco-proteins", "setting": "myc onco-proteins", "result": "inhibited"}, {"measurement": "acute dermal, oral and inhalation toxicity", "setting": "[10]", "result": "low"}, {"measurement": "random piling, non-contact-inhibited growth pattern", "setting": "[11]", "result": "marked alteration"}, {"measurement": "recurrence of tumours", "setting": "Karposi Sarcoma; after 18 months", "result": "no tumours had recurred"}, {"measurement": "tumours", "setting": "Karposi Sarcoma; after six treatments", "result": "disappeared"}, {"measurement": "tumours", "setting": "Karposi Sarcoma; after two weekly treatments, 7.04g patches for 8 hours, seven tumours", "result": "faded"}, {"measurement": "NOAEL for developmental effects", "setting": "[12]", "result": 150, "unit": "mg/m^3"}]}
{"compound": "C[S+](C)[O-]", "note": "[DMSO, dimethylsulfoxide]", "values": [{"measurement": "reduced expression of c-myc oncogenes", "setting": "c-myc oncogenes", "result": "80 to 90", "unit": "%"}]}
